Measured values reported in patent US20220315572A1, “SUBSTITUTED CYANOPYRROLIDINES WITH ACTIVITY AS USP30 INHIBITORS” (MISSION THERAPEUTICS LIMITED, priority 2019, published 2022).

Tests used:
Endogenous USP30 = biological target: T1, Endogenous USP30 (Homo sapiens, UniProt Q70CQ3); test: USP30 endogenous cellular target engagement western blot assay (Cell TE WB); format: cell-based; settings: Hela cells stably overexpressing YFP-Parkin, 1 hour
T1 construct: USP30 endogenous cellular target engagement western blot (WB) assay; endogenous in cells; host or cells: HeLa stably overexpressing YFP-Parkin
T1 sequence (Q70CQ3 1-517): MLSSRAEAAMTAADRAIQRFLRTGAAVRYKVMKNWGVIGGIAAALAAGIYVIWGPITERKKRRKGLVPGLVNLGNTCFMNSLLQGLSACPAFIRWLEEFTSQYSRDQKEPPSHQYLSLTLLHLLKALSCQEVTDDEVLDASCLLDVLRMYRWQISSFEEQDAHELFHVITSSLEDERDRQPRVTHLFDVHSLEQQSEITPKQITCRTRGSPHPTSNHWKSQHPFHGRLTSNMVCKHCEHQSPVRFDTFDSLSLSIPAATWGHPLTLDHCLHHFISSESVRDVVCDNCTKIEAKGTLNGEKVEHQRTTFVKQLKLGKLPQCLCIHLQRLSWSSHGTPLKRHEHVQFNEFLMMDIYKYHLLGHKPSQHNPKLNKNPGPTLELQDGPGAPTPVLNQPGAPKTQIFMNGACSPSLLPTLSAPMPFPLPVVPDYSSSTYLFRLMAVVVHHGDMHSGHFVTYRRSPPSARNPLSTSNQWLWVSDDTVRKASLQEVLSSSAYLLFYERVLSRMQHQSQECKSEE
Procedure: Hela cells stably overexpressing YFP-Parkin were seeded into 6 well dishes. Once adhered, cells were treated with appropriate concentrations of test compounds or vehicle control for 1 hour at 37° C., 5% CO2. Whole cell lysates were prepared by scraping the cells into cold PBS, centrifuging and lysing in lysis buffer (50 mM Tris-base, pH 7.5, 50 mM NaCl, 1% NP-40/Igepal CA-630, 2 mM MgCl2, 10% Glycerol, 5 mM beta-mercaptoethanol, cOmplete mini tablets EDTA free (Roche), PhosStop tablets (Roche)) for 10 mins. The equivalent of 20 μg of protein from the cleared cell lysate was incubated with a final conc of 2.5 μM HA-Ahx-Ahx-Ub-VME probe at room temperature. The reaction was stopped by addition of 5×SDS sample loading buffer and proteins separated by SDS PAGE and western blotting. USP30 was detected using an anti-USP30 Sheep S746D antibody (MRC PPU Reagents and Services) and a rabbit anti sheep secondary IgG (H+L) horseradish peroxidase conjugated (Thermo #31480) and visualised using ECL reagent (GE #RPN2109) on a GE LAS4000 imager. Target engagement was measured by quantitation of the bands corresponding to USP30 and USP30 bound to the Ub-VME probe and expression of this proportion compared to vehicle treated control.
Cell TE WB: USP30 endogenous cellular target engagement western blot (WB) assay. Assays the activity of compounds against USP30 in cells using an irreversible activity probe to monitor USP30 activity.

[1] = test system: Eurofins CEREP SafetyScreen44 panel; test: Eurofins CEREP SafetyScreen44 panel; format: binding; settings: single concentration of 10 μM, all targets in the panel
From the text: Aside from selectivity over other DUB enzymes, it is important for a drug to have low affinity for other targets, and pharmacological profiling may be performed against panels of targets to assess the potential for, and to minimise, potential off-target effects. Examples of targets for which the compounds of the present invention may be screened against are those of the industry standard Eurofins-Cerep SafetyScreen44 panel, which includes 44 targets as a representative selection of GPCR receptors, transporters, ion channels, nuclear receptors, and kinase and non-kinase enzymes. Preferably, compounds of the invention have insignificant affinity against targets of this screening panel. Further examples of targets for which the compounds of the present invention may be screened against are kinases of the Thermo Fisher SelectScreen kinase profiling panel, which includes 39 targets as a representative selection of kinase enzymes. Preferably, compounds of the invention have insignificant affinity against targets of this screening panel. Additionally, examples of a particular enzyme class for which the compounds of the present invention may be screened against are the cathepsins (e.g. cathepsin A, B, C, H, K, L, S, V and Z). Preferably, compounds of the invention have good selectivity for USP30 over one or more of these enzymes. […]

[2] = test system: Salmonella typhimurium strains TA98, TA100, TA1535 and TA97a and the Escherichia Coli strain WP2 uvrA pKM101; test: Bacterial reverse mutation assay (Ames); settings: up to 100 μg/well (equivalent to 5000 μg/plate), with and without metabolic activation
Procedure: The bacterial reverse mutation assay (Ames Test) may be used to evaluate the mutagenic properties of compounds of the invention, commonly by using the bacterial strain Salmonella typhimurium, which is mutant for the biosynthesis of the amino acid histidine.
Example 1 was assessed in the bacterial reverse mutation assay (Ames) and in vitro micronucleus assay. All in vitro tests were conducted with and without exogenous metabolic activation using concentrations up to those limited by cytotoxicity or insolubility.

Mouse plasma stability = format: in vitro ADME; settings: read-out: Stability Mouse plasma t1/2
From the text: Other parameters that may be measured using standard assays that are indicative of a compound's exposure profile include, for example plasma stability (half-life measurement), blood AUC, Cmax, Cmin and Tmax values.

[3] = test system: P-glycoprotein (MDR1), human; test: MDR1-MDCK flux assay; format: in vitro ADME, Canine; settings: dog
From the text: The treatment of CNS disorders, including Alzheimer's disease, Parkinson's disease, and other disorders described herein, requires drug molecules to target the brain, which requires adequate penetration of the blood brain barrier. […] The probability that a compound can cross the blood brain barrier may be measured by an in vitro flux assay utilizing a MDR1-MDCK cell monolayer (Madin-Darby Canine Kidney cells transfected with MDR-1 resulting in overexpression of the human efflux transporter P-glycoprotein). Additionally, exposure may also be measured directly in brain and plasma using in vivo animal models.
MDR1-MDCK (Madin-Darby Canine Kidney cell monolayer) (in vitro) flux assay.

[4] = Brain homogenate free fraction, equilibrium dialysis; format: in vitro ADME; settings: mouse brain tissue homogenate; read-out: Binding Mouse Brain fu, br
From the text: Brain fu,br: The free fraction of a compound in brain tissue homogenate preparation determined by in vitro equilibrium dialysis. It is understood that only unbound (free) compound is capable of engaging with the target.

SMILES | EC50 (Endogenous USP30) [nM] | inhibition of binding or enzyme activity [1] | induction of mutations, reverse mutation assay [2] | half-life (Mouse plasma stability) [h] | efflux ratio [3] | Papp A→B ([3]; A-B) [×10⁻⁶ cm/s] | fraction unbound [4] | melting point [°C]
C[C@@H]1C[C@@H](NC(=O)c2nnc(-c3cccc(C#N)c3)o2)CN1C#N [Example 1, N-((3R,5R)-1-Cyano-5-methylpyrrolidin-3-yl)-5-(3-cyanophenyl)-1,3,4-oxadiazole-2-carboxamide] | 64 | less than 25% | did not induce mutations | > 33.3 | 81 | 0.9 | 0.26 | 152 to 154
N#Cc1cccc(-c2nnc(C(=O)N[C@@H]3C[C@@H](CF)N(C#N)C3)o2)c1 [Example 3, N-((3R,5S)-1-Cyano-5-(fluoromethyl)pyrrolidin-3-yl)-5-(3-cyanophenyl)-1,3,4-oxadiazole-2-carboxamide] | 37 |  |  |  |  |  |  | 
